Test results: patent publication EP4691498A1, “ANTIBODY-DRUG CONJUGATE, AND PREPARATION METHOD THEREFOR AND USE THEREOF” (Chengdu Scimount Pharmatech Co., Ltd., priority 2023, dated 2024)
Where two headings read alike, the source gives them in different places.

Key:
[1] = highest non-severe toxic dose; from literature references 1 and 2; cited from earlier work
[2] = Safety evaluation, repeated intravenous infusion (HNSTD); assay type: in vivo; settings: monkey HNSTD expressed as eribulin amount
Description: Four groups were set up for this test, namely the vehicle control group and SMP-656 groups with different doses (5, 10, 15 mg/kg), with 10 animals in each group, including 5 females and 5 males. Monkeys in each group were intravenously infused (for 30 min) with SMP-656 at doses of 5, 10 and 15 mg/kg at a volume of 10 mL/kg, once every three weeks, for 3 administrations (total 9 weeks), followed by a 4-week recovery period.
During the test, detailed clinical observations, and body weight and food intake monitoring were performed once a week. Clinical pathology examinations (including: hematology, coagulation, serum biochemistry, and urine analysis) were performed on Day 7, Day 50 and Day 71 respectively. The observation of irritation at the administration site was conducted once a week during the administration period, 2-4 h after administration on the administration day, and once a week during the recovery period. For animals with symptoms, the observation frequency was increased to daily until the symptoms disappeared. All surviving animals underwent accompanying toxicokinetic testing on Day 1 and Day 22. At the end of the administration period and the end of the recovery period, all surviving animals were euthanized as planned, dissected and grossly observed, and tissues and organs were weighed or fixed and preserved for pathological examination.

[3] = highest non-severe toxic dose; from literature references 1 and 2; cited from earlier work; remark: listed apart in the source

For C=C1C[C@@H]2CC[C@@]34C[C@H]5O[C@H]6[C@@H](O3)[C@H]3O[C@H](CC[C@@H]3O[C@H]6[C@H]5O4)CC(=O)C[C@@H]3[C@@H](OC)[C@@H](C[C@H](O)CN)O[C@H]3C[C@H]3O[C@@H](CC[C@@H]1O2)C[C@@H](C)C3=C [Eribulin], the “Monkey HNSTD (mg/kg)” value [1] is given as 0.03^2 mg/kg and the “Equivalent to eribulin amount” value [2] is given as 0.03 mg/kg.
In the case of “MORAb-202: ADC with Eribulin as a small-molecule toxin, set DAR of 4”, the “Monkey HNSTD (mg/kg)” value [3] is given as 6^1 mg/kg and the “Equivalent to eribulin amount” value [2] is given as 0.12 mg/kg.
